Experiment [1] relates to sheddases, proteinases of the ADAM family. To be noted: cited from earlier work.
Experiment [2] has as its system metalloproteinase activity in human saliva samples. The experiment in a line: Proteinase activity assay in saliva with DQ-gelatin (fluorometry). Type of experiment: biochemical. As to conditions: compared with BB-94. The procedure: Proteinase activity assay: Total proteolytic activity in saliva samples was measured by fluorometry using the generic substrate DQ-gelatin (Molecular Probes Inc). An aliquot (usually 50 μl per 160 μl total assay volume) of each sample was mixed with substrate (10 μg/ml) in tricine buffer (50 mM Tricine, pH 7.4; 200 mM NaCl; 10 mM CaCl2; 0.05 mM ZnSO4; 0.005% Brij 35) and incubated at 37° C. An inhibitor cocktail comprising of inhibitors of serine, cysteine and aspartyl proteinases (‘Complete—EDTA free’, Roche Biochemicals, San Diego, Calif.) was included in the reactions for all the human saliva samples. Fluorometric measurements (excitation at 485 nm and emission at 538 nm) recorded every 10-20 minutes for 2 hours. These values were used to calculate an initial rate of enzyme activity (Fluorescence units/minute) which, for the murine samples, was then normalized for amylase concentration. To measure non-metalloproteinase activity, EDTA at a concentration of 30 mM was included in the assay mixture. Metalloproteinase (MP) activity was then determined as total less the EDTA-inhibited activity. Similarly, matrix metalloproteinase (MMP) activity, defined as the BB-94-inhibitible activity, was determined by subtracting the activity in the presence of BB-94 (25 μM) from total proteinase activity. […]

Experiment [3] deals with MMP9 specific bands (gelatinolytic activity) in saliva. As to conditions: control gels treated with EDTA.
Description: Zymography: 20 μl of each saliva sample was mixed with 5 μl of a sample buffer containing 250 mM Tris pH 6.8, 25% glycerol, 10% (w/v) SDS, 0.01% bromophenol blue and loaded onto 10% SDS-PAGE gels containing 0.25% porcine gelatin (Sigma). Molecular weight markers (Biowhittaker Molecular Applications, Rockland, Me., USA) and a positive control sample of conditioned medium from the human fibrosarcoma cell line HT-1080 were also included on the gel. Following electrophoresis, the gels were washed twice for 15 mins each in 2.5% Triton X-100 and then incubated overnight at 37° C. in a substrate buffer containing 50 mM Tris-HCl, pH 7.6 and 10 mM CaCl2 in the absence or presence of proteinase inhibitors EDTA (30 mM), BB-94 (20 μM), BMS-275291 (20 μM) or B428 (20 μM). Following incubation, the gels were stained with a solution of 0.5% (w/v) Coomassie Blue R250 prepared in 50% methanol: 10% acetic acid. Once stained, the gels were briefly de-stained in the same solution without the Coomassie Blue and then stored in distilled water. Areas of gelatinolytic activity appeared cleared against the blue background of the coomassie-stained undigested gelatin.

The text below walks through data of US20080254490A1, “Salivary Protease Assays for Identifying Increased Risk of Preterm Delivery Induced by Premature Rupture of Fetal Membranes” (priority 2005, published 2008).

For the compound `CNC(=O)[C@H](Cc1ccccc1)NC(=O)[C@H](CC(C)C)[C@H](CSc1cccs1)C(=O)NO` [BB-94], the activity against sheddases result in experiment [1] was “activity against sheddases”.

With `CNC(=O)[C@@H](NC(=O)[C@H](CC(C)C)NC(=O)[C@@H](S)CCN1C(=O)N(C)C(C)(C)C1=O)C(C)(C)C` [BMS-275291], in experiment [2], the “inhibition of salivary metalloproteinase activity (DQ-gelatin cleavage)” value is recorded as “results comparable to those with BB-94”.

As to `O=C(O)CN(CCN(CC(=O)O)CC(=O)O)CC(=O)O` [EDTA], the “gelatinolytic bands on zymography gels” value in experiment [3] is recorded as “showed no bands”.
